Results taken from patent publication US11666594B2, “Antibody-drug conjugates comprising a cyclic dinucleotide” (TAKEDA PHARMACEUTICAL COMPANY LIMITED, priority 2016, dated 2023).
Where a name gives a salt, the structure may show the parent alone.

Test system: IRF3 phosphorylation in FaDu cell
Assay: Phosphorylated IRF3 protein detection in FaDu cell
Type: cell-based, human
Conditions: at 30 μM; 6 hr; 2′,3′-cGAMP 30 μM = 100%
Experimental: Human larynx cancer cell line FaDu cell (ATCC) was seeded, the medium was replaced with serum free medium one day after the seeding. After the replacement, the cell was cultured for one day, and to the cell were added the natural ligand 2′,3′-cGAMP (the final concentration; 30 μM) and test compound (the final concentration; 15 μM or 30 μM). 6 hr after the addition, the cell was washed with PBS, the cell extract was prepared, and the phosphorylated IRF3 protein was detected by ELISA method or Western blotting method. The IRF3 protein phosphorylation activity of the test compound was calculated when the value in the sample with adding the natural ligand 2′,3′-cGAMP at the final concentration of 30 μM was considered as 100%.

Structure (SMILES): Nc1ncnc2c1ncn2[C@@H]1O[C@@H]2COP(=O)(O)O[C@@H]3[C@H](O)[C@@H](COP(=O)(S)O[C@H]2[C@H]1F)O[C@H]3n1cc(F)c2c(=O)[nH]cnc21 (stereo partly drawn) [Example 2, 7-((5R,7R,8R,12aR,14R,15R,15aR,16R)-14-(6-amino-9H-purin-9-yl)-15-fluoro-10,16-dihydroxy-2,10-dioxido-2-sulfanyloctahydro-12H-5,8-methanofuro[3,2-1][1,3,6,9,11,2,10]pentaoxadiphosphacyclotetradecin-7-yl)-5-fluoro-3,7-dihydro-4H-pyrrolo[2,3-d]pyrimidin-4-one di-triethylamine salt (Optical Isomer)]
- activity level of test compound (IRF3 protein phosphorylation): 88.7% at 30 μM
